# Data published in patent US12653191B2, “Active compound combinations” (Bayer Aktiengesellschaft, priority 2020, dated 2026).
# Where two headings read alike, the source gives them in different places.
# How the values were obtained:
# Diaporthe citri [1] = assay: in vitro-Test with fungal microorganisms, Method A (tables F1-F11); format: cell-based
# Outline: (§1)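 Compound was dried into wells and overlaid with liquid potato dextrose medium containing spores or mycelium of the fungus. Plates were held at 20° C and 85% RH, and growth was read as extinction at 620 nm after 3–5 days. Efficacy is relative to the untreated control (0% = control growth, 100% = no growth).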
# Alternaria alternate = assay: in vitro-Test with fungal microorganisms, Method A (tables A1-A12); format: cell-based, Alternaria alternata; conditions: Alternaria, applied alone, read-out: Efficacy %
# Outline: as §1
# [2] = tested on: Ustilago segetum var. avenae; assay: in vitro-Test with fungal microorganisms, Method B (tables I6-I11); format: cell-based; conditions: read-out: Efficacy %
# Outline: (§2)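 Efficacy scale: 0% means growth equal to the untreated control, 100% means none detected. Compounds are dried from methanol with emulsifier before adding inoculated growth medium; incubation at 20° C., 85% relative humidity for 3 to 7 days precedes photometric inhibition readout.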
# Fusarium culmorum [3] = assay: in vitro-Test with fungal microorganisms, Method B (tables G5-G15); format: cell-based; conditions: Fusarium culmorum, read-out: Efficacy
# Outline: as §2
# Cercospora beticola [4] = assay: in vitro-Test with fungal microorganisms, Method A (tables C1-C10); format: cell-based
# Outline: as §1
# Botrytis cinerea [5] = assay: in vitro-Test with fungal microorganisms, Method A (tables B1-B14); format: cell-based; conditions: Botrytis cinerea
# Outline: as §1
# Cordana musae [6] = assay: in vitro-Test with fungal microorganisms, Method B (tables E9-E16); format: cell-based; conditions: Neocordana musae, single active, read-out: Efficacy
# Outline: as §2
# Botrytis cinerea [7] = assay: in vitro-Test with fungal microorganisms, Method B (tables B15-B18); format: cell-based; conditions: Botrytis cinerea, read-out: Efficacy %
# Outline: as §2
# Colletotrichum coccodes = assay: in vitro-Test with fungal microorganisms, Method B (tables J1-J11); format: cell-based; conditions: Colletotrichum coccodes, read-out: Efficacy %
# Outline: as §2
# Alternaria alternata = assay: in vitro-Test with fungal microorganisms, Method B (tables A13-A22); format: cell-based; conditions: Alternaria alternata, read-out: Efficacy
# Outline: as §2
# [8] = tested on: Colletotrichum lindemuthianum; assay: in vitro-Test with fungal microorganisms, Method A (tables D1-D8); format: cell-based; conditions: Colletotrichum lindemuthianum, read-out: Efficacy %
# Outline: as §1
# Parastagonospora nodorum [9] = assay: in vitro-Test with fungal microorganisms, Method A (tables H1-H4); format: cell-based
# Experimental: Example: In Vitro-Test with Fungal Microorganisms
# Wells of 96-well microtiter plates are filled with 10 μl of a preparation of test compound or compound combination in methanol+emulsifier alkylaryl-polyglycol-ether. Thereafter, the solvent is evaporated in a hood. At the next step, 100 μl of liquid potato dextrose medium is given into each well, that has been amended with an appropriate concentration of spores or mycelium suspension of the test fungus.
# With the aid of a photometer, the extinction in all wells is measured at the wavelength of 620 nm.
# The microtiter plates are incubated at 20° C. and 85% relative humidity. The inhibition of growth is determined again photometrically 3-5 days after the application. Efficacy is calculated in relation to the untreated control, 0% efficacy means fungal growth as high as in untreated control while 100% efficacy means no fungal growth is measured.
# The data in tables A1 to A12, B1 to B14, C1 to C10, D1 to D8, E1 to E8, F1 to F11, G1 to G4, H1 to H4 and I1 to I5 were collected according to Method A. The data in tables A13 to A22, B15 to B18, C11 to C20, E9 to E16, F12 to F15, G5 to G15, H5 to H8, I6 to I11 and J1 to J11 were collected according to Method B.
# Cordana musae [10] = assay: in vitro-Test with fungal microorganisms, Method A (tables E1-E8); format: cell-based; conditions: Neocordana musae, read-out: Efficacy %
# Outline: as §1
# Diaporthe citri [11] = assay: in vitro-Test with fungal microorganisms, Method B (tables F12-F15); format: cell-based
# Outline: as §2
# Parastagonospora nodorum [12] = assay: in vitro-Test with fungal microorganisms, Method B (tables H5-H8); format: cell-based; conditions: Parastagonospora nodorum, read-out: Efficacy
# Outline: as §2
# Cercospora beticola [13] = assay: in vitro-Test with fungal microorganisms, Method B (tables C11-C20); format: cell-based; conditions: Cercospora beticola, single compound, read-out: Efficacy %
# Outline: as §2
# Fusarium culmorum [14] = assay: in vitro-Test with fungal microorganisms, Method A (tables G1-G4); format: cell-based; conditions: alone
# Outline: as §1
# [15] = Diaporthe citri, applied alone, read-out: Efficacy
# [16] = Diaporthe citri, single active, read-out: Efficacy
structure (smiles),measurement,setting,value
"Cc1cc(C)nc(Nc2ccccc2)n1 [(7.005) pyrimethanil, pyrimethanil]",inhibition of growth at 4 ppm,Diaporthe citri [1]; [15],97%
same,inhibition of growth at 20 ppm,Diaporthe citri [1]; [15],100%
same,inhibition of growth at 0.8 ppm,"Diaporthe citri [1]; Diaporthe citri, single active, 0.8 ppm, read-out: Efficacy",0%
same,inhibition of growth at 4 ppm,Diaporthe citri [1]; [16],97%
same,inhibition of growth at 20 ppm,Diaporthe citri [1]; [16],100%
same,inhibition of growth at 4 ppm,Alternaria alternate; 4 ppm,93%
same,inhibition of growth at 20 ppm,Alternaria alternate; 20 ppm,82%
same,inhibition of growth at 0.8 ppm,[2]; 0.8 ppm,18%
same,inhibition of growth at 4 ppm,[2]; 4 ppm,42%
same,inhibition of growth at 20 ppm,[2]; 20 ppm,49%
same,inhibition of growth at 0.8 ppm,Fusarium culmorum [3]; alone,5%
same,inhibition of growth at 0.8 ppm,Fusarium culmorum [3]; single active compound,8%
same,inhibition of growth at 4 ppm,"Fusarium culmorum [3]; single active compound, 4 ppm",16%
same,inhibition of growth at 20 ppm,"Fusarium culmorum [3]; single active compound, 20 ppm",24%
same,Efficacy %,Cercospora beticola [4]; 20.0 ppm,100%
same,inhibition of growth at 0.8 ppm,"Cercospora beticola [4]; Cercospora beticola, 0.8 ppm alone, read-out: Efficacy %",10%
same,inhibition of growth at 0.8 ppm,"Cercospora beticola [4]; Cercospora beticola, 0.8 ppm, read-out: Efficacy %",20%
same,inhibition of growth at 4 ppm,"Cercospora beticola [4]; Cercospora beticola, 4.0 ppm alone, read-out: Efficacy %",98%
same,inhibition of growth at 4 ppm,"Cercospora beticola [4]; Cercospora beticola, 4.0 ppm, read-out: Efficacy %",100%
same,inhibition of growth at 4 ppm,Botrytis cinerea [5]; read-out: Efficacy,100%
same,inhibition of growth at 20 ppm,Botrytis cinerea [5]; read-out: Efficacy,100%
same,inhibition of growth at 0.8 ppm,"Botrytis cinerea [5]; alone, 0.8 ppm, read-out: Efficacy %",100%
same,inhibition of growth at 4 ppm,"Botrytis cinerea [5]; alone, read-out: Efficacy %",100%
same,inhibition of growth at 20 ppm,"Botrytis cinerea [5]; alone, read-out: Efficacy %",100%
same,inhibition of growth at 0.8 ppm,Cordana musae [6]; 0.8 ppm,40%
same,inhibition of growth at 0.8 ppm,Botrytis cinerea [7]; 0.8 ppm alone,89%
same,inhibition of growth at 4 ppm,Botrytis cinerea [7]; 4 ppm alone,95%
same,inhibition of growth at 0.8 ppm,Colletotrichum coccodes; single active compound at 0.8 ppm,25%
same,inhibition of growth at 0.8 ppm,Alternaria alternata,96%
same,inhibition of growth at 0.8 ppm,Alternaria alternata; single compound,96%
same,inhibition of growth at 20 ppm,"Alternaria alternata; single compound, 20 ppm",100%
same,inhibition of growth at 0.8 ppm,[8]; single active at 0.8 ppm,1%
same,inhibition of growth at 4 ppm,[8]; single active at 4.0 ppm,0%
same,inhibition of growth at 20 ppm,[8]; single active at 20.0 ppm,16%
same,Efficacy,Parastagonospora nodorum [9]; 0.8 ppm,100%
same,Efficacy,Parastagonospora nodorum [9]; 20.0 ppm,100%
same,inhibition of growth at 4 ppm,Cordana musae [10]; mixing partner alone,24%
same,inhibition of growth at 20 ppm,Cordana musae [10]; mixing partner alone,4%
same,inhibition of growth at 4 ppm,Cordana musae [10]; single substance,0%
same,inhibition of growth at 20 ppm,Cordana musae [10]; single substance,24%
"Fc1ccc(Oc2ccnc3cc(Cl)cc(Cl)c23)cc1 [(13.005) quinoxyfen, quinoxyfen]",inhibition of growth at 0.08 ppm,"Diaporthe citri [1]; Diaporthe citri, Table F10, 0.08 ppm alone, read-out: Efficacy",52%
same,inhibition of growth at 0.4 ppm,"Diaporthe citri [1]; Diaporthe citri, Table F10, 0.4 ppm alone, read-out: Efficacy",6%
same,inhibition of growth at 2 ppm,"Diaporthe citri [1]; Diaporthe citri, Table F10, 2.0 ppm alone, read-out: Efficacy",10%
same,inhibition of growth at 10 ppm,"Diaporthe citri [1]; Diaporthe citri, Table F10, 10.0 ppm alone, read-out: Efficacy",20%
same,inhibition of growth at 0.4 ppm,"Diaporthe citri [1]; Diaporthe citri, applied alone, 0.4 ppm, read-out: Efficacy",15%
same,inhibition of growth at 10 ppm,"Diaporthe citri [1]; Diaporthe citri, applied alone, 10.0 ppm, read-out: Efficacy",41%
same,Efficacy,"Diaporthe citri [1]; applied alone, 2.0 ppm",0%
same,Efficacy,"Diaporthe citri [11]; Table F13, 0.08 ppm alone",0%
same,Efficacy,"Diaporthe citri [11]; Table F13, 2 ppm alone",24%
same,Efficacy,"Diaporthe citri [11]; Table F15, 0.4 ppm alone",0%
same,Efficacy,"Diaporthe citri [11]; Table F15, 2 ppm alone",13%
same,Efficacy,"Diaporthe citri [11]; Table F15, 10 ppm alone",76%
same,inhibition of growth at 0.08 ppm,[2]; 0.08 ppm,0%
same,inhibition of growth at 2 ppm,[2]; 2 ppm,0%
same,inhibition of growth at 10 ppm,[2]; 10 ppm,9%
same,inhibition of growth at 0.08 ppm,"Fusarium culmorum [3]; single active compound, 0.08 ppm",0%
same,inhibition of growth at 0.4 ppm,"Fusarium culmorum [3]; single active compound, 0.4 ppm",2%
same,inhibition of growth at 10 ppm,"Fusarium culmorum [3]; single active compound, 10 ppm",8%
same,inhibition of growth at 0.08 ppm,Parastagonospora nodorum [12]; 0.08 ppm,5%
same,inhibition of growth at 0.4 ppm,Parastagonospora nodorum [12]; 0.4 ppm,4%
same,inhibition of growth at 2 ppm,Parastagonospora nodorum [12]; 2 ppm,1%
same,inhibition of growth at 10 ppm,Parastagonospora nodorum [12]; 10 ppm,33%
same,inhibition of growth at 0.08 ppm,"Cercospora beticola [4]; Cercospora beticola, 0.08 ppm alone, read-out: Efficacy %",10%
same,inhibition of growth at 0.4 ppm,"Cercospora beticola [4]; Cercospora beticola, 0.4 ppm alone, read-out: Efficacy %",0%
same,inhibition of growth at 2 ppm,"Cercospora beticola [4]; Cercospora beticola, 2.0 ppm alone, read-out: Efficacy %",4%
same,inhibition of growth at 10 ppm,"Cercospora beticola [4]; Cercospora beticola, 10.0 ppm alone, read-out: Efficacy %",34%
same,inhibition of growth at 0.4 ppm,"Botrytis cinerea [5]; alone, 0.4 ppm, read-out: Efficacy %",0%
same,inhibition of growth at 0.08 ppm,Cordana musae [6]; 0.08 ppm,0%
same,inhibition of growth at 0.4 ppm,Cordana musae [6]; 0.4 ppm,0%
same,inhibition of growth at 10 ppm,Cordana musae [6]; 10 ppm,2%
same,inhibition of growth at 0.08 ppm,Botrytis cinerea [7]; 0.08 ppm alone,0%
same,inhibition of growth at 0.4 ppm,Botrytis cinerea [7]; 0.4 ppm alone,0%
same,inhibition of growth at 0.08 ppm,Colletotrichum coccodes; 0.08 ppm,0%
same,inhibition of growth at 0.4 ppm,Colletotrichum coccodes; 0.4 ppm,0%
same,inhibition of growth at 2 ppm,Colletotrichum coccodes; 2 ppm,48%
same,inhibition of growth at 0.08 ppm,Colletotrichum coccodes; single active compound at 0.08 ppm,0%
same,inhibition of growth at 0.4 ppm,Colletotrichum coccodes; single active compound at 0.4 ppm,0%
same,inhibition of growth at 2 ppm,Colletotrichum coccodes; single active compound at 2 ppm,18%
same,inhibition of growth at 10 ppm,Colletotrichum coccodes; single active compound at 10 ppm,28%
same,inhibition of growth at 10 ppm,"Alternaria alternata; single compound, 10 ppm",30%
same,inhibition of growth at 0.08 ppm,"[8]; mixing partner alone, 0.08 ppm",0%
same,inhibition of growth at 0.4 ppm,"[8]; mixing partner alone, 0.4 ppm",0%
same,inhibition of growth at 2 ppm,"[8]; mixing partner alone, 2.0 ppm",0%
same,inhibition of growth at 0.08 ppm,[8]; single active at 0.08 ppm,1%
same,inhibition of growth at 0.4 ppm,[8]; single active at 0.4 ppm,0%
same,inhibition of growth at 2 ppm,[8]; single active at 2.0 ppm,0%
same,inhibition of growth at 10 ppm,[8]; single active at 10.0 ppm,24%
same,inhibition of growth at 0.4 ppm,Cercospora beticola [13]; 0.4 ppm,0%
same,inhibition of growth at 2 ppm,Cercospora beticola [13]; 2 ppm,0%
same,inhibition of growth at 10 ppm,Cercospora beticola [13]; 10 ppm,4%
same,Efficacy,Fusarium culmorum [14]; 10.0 ppm,0%
same,inhibition of growth at 0.08 ppm,"Fusarium culmorum [14]; Fusarium culmorum, 0.08 ppm, read-out: Efficacy",0%
same,inhibition of growth at 10 ppm,"Fusarium culmorum [14]; Fusarium culmorum, 10.0 ppm, read-out: Efficacy",0%
same,inhibition of growth at 0.4 ppm,Cordana musae [10]; mixing partner alone,0%
same,inhibition of growth at 2 ppm,Cordana musae [10]; mixing partner alone,0%
same,inhibition of growth at 10 ppm,Cordana musae [10]; mixing partner alone,0%
same,inhibition of growth at 0.08 ppm,"Cordana musae [10]; single substance, 0.08 ppm",0%
same,inhibition of growth at 0.4 ppm,Cordana musae [10]; single substance,0%
same,inhibition of growth at 2 ppm,Cordana musae [10]; single substance,0%
same,inhibition of growth at 10 ppm,Cordana musae [10]; single substance,34%
